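1) Cells in 96-well plates. 2) Compound, 48 h, 5 concentrations. 3) Linear interpolation between surrounding doses. 4) Unreached endpoint = highest concentration. GI50 = concentration required for 50% inhibition of growth. At the TGI there is no net growth.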 Where a SMILES comes first, the peptide text is derived from it. [ ]: non-standard residue; d: D form.
Tests used:
Test in all cases: NCI tumour cell line growth inhibition, 48 h
XF 498 CNS = test system: XF 498 CNS
LXFL 529 NSCLC = test system: LXFL 529 NSCLC
HOP-18 NSCLC = test system: HOP-18 NSCLC
DMS 273 small cell lung = test system: DMS 273 small cell lung
SNB-78 CNS = test system: SNB-78 CNS
M19-MEL melanoma = test system: M19-MEL melanoma
RXF-631 renal = test system: RXF-631 renal
P388/ADR leukemia = test system: P388/ADR leukemia
P388 leukemia = test system: P388 leukemia
SN12K1 renal = test system: SN12K1 renal

Compound	GI50 (XF 498 CNS) [µM]	TGI (XF 498 CNS) [µM]	GI50 (LXFL 529 NSCLC) [µM]	TGI (LXFL 529 NSCLC) [µM]	TGI (HOP-18 NSCLC) [µM]	TGI (DMS 273 small cell lung) [µM]	TGI (SNB-78 CNS) [µM]	TGI (M19-MEL melanoma) [µM]	TGI (RXF-631 renal) [µM]	TGI (P388/ADR leukemia) [µM]	TGI (P388 leukemia) [µM]	TGI (SN12K1 renal) [µM]
CC(=O)/C=C(/C)[O-].CC(=O)/C=C(/C)[O-].CC(=O)[CH-]C(C)=O.CC(=O)[CH-]C(C)=O.[Zr+4]	> 100	> 100	> 100	> 100	–	–	–	–	–	–	–	–
CSc1ccc(N2C(=O)C3c4[nH]c5ccccc5c4C4CCC(C(C)(C)C)CC4C3C2=O)cc1 (centres undefined)	–	> 100	–	47.5	53.5	25.3	31.1	> 100	–	–	–	–
NC(=Nc1ccccc1)N/N=C/c1c[nH]c2ccccc12	–	–	–	14.4	73	13.8	19.7	–	–	–	–	–
O=C(CC12C3C4C1C1C2C3C41CC(=O)NO)NO (centres undefined)	–	> 100	–	> 100	–	> 100	> 100	–	> 100	–	–	–
O=C1Sc2ccccc2C(=O)N2CCSC12 (centres undefined)	–	–	–	> 100	> 100	> 100	> 100	> 100	–	–	–	–
N#CC1=C(O)NC(O)=C(C#N)C1c1c(Cl)cccc1Cl	–	> 100	–	–	> 100	92	> 100	> 100	–	–	–	–
COCC(C#N)NC1CC(OC2CC(O)(C(=O)CO)Cc3c(O)c4c(c(O)c32)C(=O)c2c(OC)cccc2C4=O)OC(C)C1O (centres undefined)	–	0.0678	–	1.06	70.8	0.602	4.54	0.22	2.35	–	–	–
O=C1CCC2(O)c3ccccc3C2Cc2ccccc21 (centres undefined)	–	> 100	–	–	> 100	> 100	> 100	> 100	–	–	–	–
O=C1C(Cl)N(c2ccc([N+](=O)[O-])cc2)C1c1c[nH]c2ccccc12 (centres undefined)	–	> 100	–	> 100	–	–	–	> 100	–	–	–	–
Clc1ccc(C2SCc3nc4ccccc4n32)cc1 (centres undefined)	–	27.5	–	87.1	> 100	36.2	> 100	54.3	> 100	–	–	–
N=C1C=CC(=C(c2ccc(N)cc2)c2ccc(N)cc2)C=C1	–	7.45	–	14	–	–	18.9	16.8	–	–	–	–
CC(C)C[C@H](NC(=O)[C@H](CC(C)C)NC(=O)[C@@H](Cc1c[nH]c2ccccc12)NC(=O)[C@H](Cc1ccccc1)NC(=O)[C@@H](Cc1c[nH]c2ccccc12)NC(=O)[C@H](CCC(N)=O)NC(=O)[C@@H](CCC(N)=O)NC(=O)[C@@H]1CCCN1C(=O)[C@@H](CCCCN)NC(=O)[C@H]1CCCN1C(=O)[C@H](N)CCCN=C(N)N)C(N)=O (H-[dR][dP][dK]P[dQ]Q[dW]F[dW]LL-NH2)	–	> 100	–	–	> 100	> 100	> 100	> 100	–	> 100	> 100	> 100
Cc1cc(C)[n+]2c(c1)C=CC2	–	–	–	> 100	–	4.24	> 100	> 100	–	–	–	–
O=S(=O)(O)c1cc(S(=O)(=O)O)c2cc(N=Nc3ccc(N=Nc4ccc(/C=C/c5ccc(N=[N+]([O-])c6ccc(/C=C/c7ccc(N=Nc8ccc(N=Nc9ccc%10cc(S(=O)(=O)O)cc(S(=O)(=O)O)c%10c9)cc8)cc7S(=O)(=O)O)c(S(=O)(=O)O)c6)cc5S(=O)(=O)O)c(S(=O)(=O)O)c4)cc3)ccc2c1	–	> 100	–	–	> 85.8	> 100	> 100	> 100	–	–	> 31.2	> 100

— PubChem BioAssay (NCI)
